Target: T1, human EP4 receptor (Homo sapiens, UniProt P35408)
T1 construct: expressed in transfected cells; host or cells: Chinese Hamster Ovary (CHO) cells infected with recombinant Semliki Forest Virus (SFV-1) particles; membranes prepared from these cells
Assay: Human EP4 Scintillation Proximity Assay (radioligand binding)
Settings: membranes of CHO cells expressing human EP4 receptor; [3H]-prostaglandin E2 radioligand; pKi from IC50 by Cheng-Prusoff; read-out: pKI at EP4 receptors (converted)
Method: Quantification of radioligand binding by scintillation proximity assay (SPA) is a long-established principle. Briefly, the affinity of compounds for a receptor is assessed by the specific competition between known quantities of radiolabelled ligand and compound for that receptor. Increasing concentrations of compound reduce the amount of radiolabel that binds to the receptor. This gives rise to a diminishing scintillation signal from SPA beads coated with membranes that bear the receptor. The signal may be detected with a suitable scintillation counter and the data generated may be analysed with suitable curve-fitting software.
The human EP4 SPA assay (hereafter referred to as ‘the assay’) utilises membranes prepared from Chinese Hamster Ovary (CHO cells) infected with Semliki Forest Virus (SFV). Genetically engineered SFV-1 viral particles containing the genetic sequence of the human EP4 receptor were used to infect CHO cells resulting in expression of the receptor protein in cellular membranes. Cells washed free of media are homogenised in a pH-buffered medium containing peptidase inhibitors. A suitable buffer is of the following composition: 50 mM HEPES, 1 mM EDTA, 25 μg/ml bacitracin, 100 μM leupeptin, 1 mM PMSF, 2 μM Pepstatin A, pH adjusted to 7.4 with KOH. Following removal of cell debris by a low-speed centrifugation, a pellet of membranes is prepared by a high-speed (48000 g) centrifugation of the resulting supernatant. Membrane suspensions such as that described may be stored at −80° C. until used.
For assay, membranes expressing human EP4 receptors are diluted in a pH-buffered medium and mixed with SPA beads coated with a suitable substance to facilitate the adhesion of membranes to the beads. The concentrations of membrane protein and SPA beads chosen should result in SPA binding signal of at least 300 corrected counts per minute (CCPM) when tritiated radioligand at a concentration close to its Kd (affinity value) is combined with the mixture. Non-specific binding (nsb) may be determined by competition between the radiolabelled ligand and a saturating concentration of unlabelled ligand. In order to quantify the affinity of EP4 receptor ligands, compounds are diluted in a stepwise manner across the wells of a 96-well plate. Radioligand, compound, and unlabelled ligand are then added to a 96-well plate suitable for the measurement of SPA binding signals prior to the addition of bead/membrane mixture to initiate the binding reaction. Equilibrium may be achieved by incubation at room temperature for 120 minutes prior to scintillation counting. The data so generated may be analysed by means of a computerised curve-fitting routine in order to quantify the concentration of compound that displaces 50% of the specific radioligand binding (IC50). The affinity (pKi) of the compound may be calculated from the IC50 by application of the Cheng-Prusoff correction. Suitable reagents and protocols are: reaction buffer containing 50 mM HEPES, 10 mM MgCl2, pH adjusted to 7.4 with KOH; SPA beads coated with wheatgerm agglutinin; 1.25 nM [^3H]-prostaglandin E2 as radioligand; 10 μM prostaglandin E2 as unlabelled ligand; a three-fold dilution series of compound starting at 10 μM and ending at 0.3 nM is adequate.

T1 sequence (P35408 whole entry): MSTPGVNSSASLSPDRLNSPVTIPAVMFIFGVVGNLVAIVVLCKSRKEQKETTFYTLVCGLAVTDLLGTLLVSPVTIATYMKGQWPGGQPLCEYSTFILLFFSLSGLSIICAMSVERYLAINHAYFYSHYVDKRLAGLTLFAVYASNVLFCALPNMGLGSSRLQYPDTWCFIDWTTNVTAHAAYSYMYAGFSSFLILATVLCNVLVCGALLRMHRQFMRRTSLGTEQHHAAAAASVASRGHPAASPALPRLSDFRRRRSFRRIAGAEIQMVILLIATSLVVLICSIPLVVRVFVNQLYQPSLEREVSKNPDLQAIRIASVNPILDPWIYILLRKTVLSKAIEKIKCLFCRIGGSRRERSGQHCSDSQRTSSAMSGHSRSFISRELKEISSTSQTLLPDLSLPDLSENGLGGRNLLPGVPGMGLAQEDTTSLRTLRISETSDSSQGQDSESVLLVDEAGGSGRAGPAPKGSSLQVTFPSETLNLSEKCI

| Ki | Structure (SMILES) |
| --- | --- |
| ≤ 100 nM | CCOc1c2c(c(OCC)c3ccccc13)C(=O)N(c1ccc(CS(=O)(=O)NC(=O)Cc3cccc(OCc4ccccc4)c3)cc1)C2 [Example 42] |
| ≤ 100 nM | CCOc1c2c(c(OCC)c3ccccc13)C(=O)N(c1ccc(CS(=O)(=O)NC(=O)Cc3ccccc3C)cc1)C2 [Example 21] |
| ≤ 100 nM | CCOc1c2c(c(OCC)c3ccccc13)C(=O)N(c1ccc(CS(=O)(=O)NC(=O)Cc3ccc(CC)cc3)cc1)C2 [Example 28] |
| ≤ 100 nM | CCOc1c2c(c(OCC)c3ccccc13)C(=O)N(c1ccc(CS(=O)(=O)NC(=O)Cc3ccc(OC)c(OC)c3)cc1)C2 [Example 38, 1-[4-(4,9-diethoxy-1-oxo-1,3-dihydro-2H-benzo[f]isoindol-2-yl)phenyl]-N-[(3,4-dimethoxyphenyl)acetyl]methanesulfonamide] |
| ≤ 100 nM | CCOc1c2c(c(OCC)c3ccccc13)C(=O)N(c1ccc(CS(=O)(=O)NC(=O)Cc3ccsc3)cc1)C2 [Example 51] |
| ≤ 100 nM | CCOc1c2c(c(OCC)c3ccccc13)C(=O)N(c1ccc(CS(=O)(=O)NC(=O)Cc3cccc(OC)c3OC)cc1)C2 [Example 34, 1-[4-(4,9-diethoxy-1-oxo-1,3-dihydro-2H-benzo[f]isoindol-2-yl)phenyl]-N-[(2,3-dimethoxyphenyl)acetyl]methanesulfonamide] |
| ≤ 100 nM | CCOc1c2c(c(OCC)c3ccccc13)C(=O)N(c1ccc(CS(=O)(=O)NC(=O)Cc3ccc(CC(C)C)cc3)cc1)C2 [Example 23] |
| ≤ 100 nM | CCOc1c2c(c(OCC)c3ccccc13)C(=O)N(c1ccc(CS(=O)(=O)NC(=O)Cc3ccccc3CC(=O)OC)cc1)C2 [Example 47] |
| ≤ 100 nM | CCOc1c2c(c(OCC)c3ccccc13)C(=O)N(c1ccc(CS(=O)(=O)NC(=O)Cc3cc(OC)cc(OC)c3)cc1)C2 [Example 83] |
| ≤ 100 nM | CCOc1c2c(c(OCC)c3ccccc13)C(=O)N(c1ccc(CS(=O)(=O)NC(=O)Cc3ccccc3)cc1)C2 [Example 18, 1-[4-(4,9-diethoxy-1-oxo-1,3-dihydro-2H-benzo[f]isoindol-2-yl)phenyl]-N-(phenylacetyl)methanesulfonamide] |
| ≤ 100 nM | CCOc1ccc(CC(=O)NS(=O)(=O)Cc2ccc(N3Cc4c(c(OCC)c5ccccc5c4OCC)C3=O)cc2)cc1OCC [Example 82] |
| ≤ 100 nM | CCOc1c2c(c(OCC)c3ccccc13)C(=O)N(c1ccc(CS(=O)(=O)NC(=O)Cc3ccc4c(c3)OCO4)cc1)C2 [Example 84] |
| ≤ 100 nM | CCOc1c2c(c(OCC)c3ccccc13)C(=O)N(c1ccc(CS(=O)(=O)NC(=O)Cc3cccc4occc34)cc1)C2 [Example 88] |
| ≤ 100 nM | CCOc1c2c(c(OCC)c3ccccc13)C(=O)N(c1ccc(CS(=O)(=O)NC(=O)Cc3ccccc3F)cc1)C2 [Example 32] |
| ≤ 100 nM | CCOc1c2c(c(OCC)c3ccccc13)C(=O)N(c1ccc(CS(=O)(=O)NC(=O)Cc3ccc(C)cc3)cc1)C2 [Example 20] |
| ≤ 100 nM | CCOc1c2c(c(OCC)c3ccccc13)C(=O)N(c1ccc(CS(=O)(=O)NC(=O)Cc3ccc4ccccc4c3)cc1)C2 [Example 48] |
| ≤ 100 nM | CCOc1c2c(c(OCC)c3ccccc13)C(=O)N(c1ccc(CS(=O)(=O)NC(=O)Cc3scnc3C)cc1)C2 [Example 60] |
| ≤ 100 nM | CCOc1c2c(c(OCC)c3ccccc13)C(=O)N(c1ccc(CS(=O)(=O)NC(=O)Cc3cccc(OC)c3)cc1)C2 [Example 43, 1-[4-(4,9-diethoxy-1-oxo-1,3-dihydro-2H-benzo[f]isoindol-2-yl)phenyl]-N-[(3-methoxyphenyl)acetyl]methanesulfonamide] |
| ≤ 100 nM | CCOc1c2c(c(OCC)c3ccccc13)C(=O)N(c1ccc(CS(=O)(=O)NC(=O)Cc3ccc(OC(F)(F)F)cc3)cc1)C2 [Example 80] |
| ≤ 100 nM | CCOc1c2c(c(OCC)c3ccccc13)C(=O)N(c1ccc(CS(=O)(=O)NC(=O)Cc3cc(C)ccc3C)cc1)C2 [Example 39] |
| ≤ 100 nM | CCOc1c2c(c(OCC)c3ccccc13)C(=O)N(c1ccc(CS(=O)(=O)NC(=O)Cc3ccccc3Cl)cc1)C2 [Example 29] |
| ≤ 100 nM | CCOc1c2c(c(OCC)c3ccccc13)C(=O)N(c1ccc(CS(=O)(=O)NC(=O)Cc3cccc(F)c3)cc1)C2 [Example 25] |
| ≤ 100 nM | CCOc1c2c(c(OCC)c3ccccc13)C(=O)N(c1ccc(CS(=O)(=O)NC(=O)Cc3ccc4c(c3)OC(C)(C)O4)cc1)C2 [Example 85] |
| ≤ 100 nM | CCOc1c2c(c(OCC)c3ccccc13)C(=O)N(c1ccc(CS(=O)(=O)NC(=O)Cc3cccc(OC(F)(F)F)c3)cc1)C2 [Example 81] |
| ≤ 100 nM | CCOc1c2c(c(OCC)c3ccccc13)C(=O)N(c1ccc(CS(=O)(=O)NC(=O)Cc3cccc(C)c3)cc1)C2 [Example 26] |

The next lines start with the compound.

| Structure (SMILES) | Ki |
| --- | --- |
| CCOc1c2c(c(OCC)c3ccccc13)C(=O)N(c1ccc(CS(=O)(=O)NC(=O)C(CC)c3ccccc3)cc1)C2=O (centres unmarked) [Example 64] | ≤ 100 nM |
| CCOc1c2c(c(OCC)c3ccccc13)C(=O)N(c1ccc(CS(=O)(=O)NC(=O)Cc3cc(F)ccc3F)cc1)C2=O [Example 69] | ≤ 100 nM |
| CCOc1c2c(c(OCC)c3ccccc13)C(=O)N(c1ccc(CS(=O)(=O)NC(=O)Cc3cccc4ccccc34)cc1)C2=O [Example 76] | ≤ 100 nM |
| CCOc1c2c(c(OCC)c3ccccc13)C(=O)N(c1ccc(CS(=O)(=O)NC(=O)C(C)c3ccc4cc(OC)ccc4c3)cc1)C2 (centres unmarked) [Example 86] | ≤ 100 nM |
| CCOc1c2c(c(OCC)c3ccccc13)C(=O)N(c1ccc(CS(=O)(=O)NC(=O)Cc3ccc(Cl)cc3)cc1)C2=O [Example 70] | ≤ 100 nM |
| CCOc1c2c(c(OCC)c3ccccc13)C(=O)N(c1ccc(CS(=O)(=O)NC(=O)Cc3ccccc3)cc1)C2=O [Example 1, 1-[4-(4,9-diethoxy-1,3-dioxo-1,3-dihydro-2H-benzo[f]isoindol-2-yl)phenyl]-N-(phenylacetyl)methanesulfonamide] | ≤ 100 nM |
| CCOc1c2c(c(OCC)c3ccccc13)C(=O)N(c1ccc(CS(=O)(=O)NC(=O)Cc3ccc4ccccc4c3)cc1)C2=O [Example 77] | ≤ 100 nM |
| CCOc1c2c(c(OCC)c3ccccc13)C(=O)N(c1ccc(CS(=O)(=O)NC(=O)C3(c4ccccc4)CC3)cc1)C2 [Example 50] | ≤ 100 nM |
| CCOc1c2c(c(OCC)c3ccccc13)C(=O)N(c1ccc(CS(=O)(=O)NC(=O)Cc3ccccc3OC)cc1)C2=O [Example 71, 1-[4-(4,9-diethoxy-1,3-dioxo-1,3-dihydro-2H-benzo[f]isoindol-2-yl)phenyl]-N-[(2-methoxyphenyl)acetyl]methanesulfonamide] | ≤ 100 nM |
| CCOc1c2c(c(OCC)c3ccccc13)C(=O)N(c1ccc(CS(=O)(=O)NC(=O)Cc3ccc(OC)cc3)cc1)C2=O [Example 2] | ≤ 100 nM |
| CCOc1c2c(c(OCC)c3ccccc13)C(=O)N(c1ccc(CS(=O)(=O)NC(=O)C(C)c3ccccc3)cc1)C2=O (centres unmarked) [Example 68] | ≤ 100 nM |
| CCOc1c2c(c(OCC)c3ccccc13)C(=O)N(c1ccc(CS(=O)(=O)NC(=O)Cc3cccc(OC)c3)cc1)C2=O [Example 63] | ≤ 100 nM |
| CCOc1c2c(c(OCC)c3ccccc13)C(=O)N(c1ccc(CS(=O)(=O)NC(=O)Cc3ccc(-c4ccccc4)cc3)cc1)C2 [Example 30] | ≤ 100 nM |
| CCOc1c2c(c(OCC)c3ccccc13)C(=O)N(c1ccc(CS(=O)(=O)NC(=O)Cc3c(C)cccc3C)cc1)C2=O [Example 72] | ≤ 100 nM |
| CCOc1c2c(c(OCC)c3ccccc13)C(=O)N(c1ccc(CS(=O)(=O)NC(=O)Cc3ccc(F)cc3)cc1)C2=O [Example 62] | ≤ 100 nM |
| CCOc1c2c(c(OCC)c3ccccc13)C(=O)N(c1ccc(CS(=O)(=O)NC(=O)C(C)c3ccc(CC(C)C)cc3)cc1)C2 (centres unmarked) [Example 40] | ≤ 100 nM |
| CCOc1c2c(c(OCC)c3ccccc13)C(=O)N(c1ccc(CS(=O)(=O)NC(=O)Cc3ccc4c(c3)OCO4)cc1)C2=O [Example 93] | ≤ 100 nM |
| CCOc1c2c(c(OCC)c3ccccc13)C(=O)N(c1ccc(CS(=O)(=O)NC(=O)Cn3ccc4ccccc43)cc1)C2 [Example 87] | ≤ 100 nM |
| CCOc1c2c(c(OCC)c3ccccc13)C(=O)N(c1ccc(CS(=O)(=O)NC(=O)C(Cl)c3ccccc3)cc1)C2=O (centres unmarked) [Example 75] | ≤ 100 nM |
